Here are results for 6 molecules from paper PMC12415548 (RSC Advances, 2025).

≈ marks a conversion by molar mass, not a printed value. Read-outs that look alike come from different tables or passages of the source.

One data set deals with normal HDF cells. As to the kind of experiment: Apoptosis/cytotoxicity in normal HDF cells.
Data set [1] relates to MCF-7 breast cancer cell line. The note with it: read-out: IC50 in MCF-7; known value quoted for comparison; no reference given; cited from earlier work.
The next data set has as its system MDA-MB-231 cells. As to the kind of experiment: Apoptosis induction in MDA-MB-231 cells. Format: cell-based, human. The note with it: MDA-MB-231 cells (Fig. 4).
The subject of another data set is MCF-7 cells. As to the kind of experiment: Apoptosis induction in MCF-7 cells. It counts as cell-based, human. The note with it: MCF-7 cells (Fig. 4).
A further data set deals with MRSA. Description: Time-kill assay against MRSA. It counts as cell-based, Staphylococcus aureus. The note with it: 0-24 h.
Data set [2] concerns MRSA (Staphylococcus aureus ATCC 43300). Description: Minimum bactericidal concentration. Format: cell-based. The note with it: for Interpretation (of MBC/MIC): Table 4.
In data set [3] the test system is MCF-7 breast cancer cell line. Description: MTT cytotoxicity assay, MCF-7. Format: cell-based. The note with it: Homo sapiens, MCF7, read-out: IC50 (μg mL^−1) ± SD MCF7.
In data set [4] the test system is MDA-MB-231 breast cancer cell line. Description: MTT cytotoxicity assay, MDA-MB-231. Format: cell-based. The note with it: Homo sapiens, MDA-MB-231, read-out: IC50 (μg mL^−1) ± SD MDA-MB231.
For data set [5], the system named is MRSA (Staphylococcus aureus ATCC 43300). As to the kind of experiment: Anti-MRSA MIC, broth microdilution. The note with it: for anti-MRSA potency compared to Linezolid: MIC comparison; for Interpretation (of MIC): MRSA, Table 3. It counts as cell-based.
In another data set the target is AChE (Homo sapiens, UniProt P22303). Description: Anticholinesterase inhibitory assay. It counts as biochemical.
For the next data set, the system named is MRSA biofilm. As to the kind of experiment: Antibiofilm activity, crystal violet assay. It counts as cell-based, Staphylococcus aureus.

Chain of AChE (P22303 32-614): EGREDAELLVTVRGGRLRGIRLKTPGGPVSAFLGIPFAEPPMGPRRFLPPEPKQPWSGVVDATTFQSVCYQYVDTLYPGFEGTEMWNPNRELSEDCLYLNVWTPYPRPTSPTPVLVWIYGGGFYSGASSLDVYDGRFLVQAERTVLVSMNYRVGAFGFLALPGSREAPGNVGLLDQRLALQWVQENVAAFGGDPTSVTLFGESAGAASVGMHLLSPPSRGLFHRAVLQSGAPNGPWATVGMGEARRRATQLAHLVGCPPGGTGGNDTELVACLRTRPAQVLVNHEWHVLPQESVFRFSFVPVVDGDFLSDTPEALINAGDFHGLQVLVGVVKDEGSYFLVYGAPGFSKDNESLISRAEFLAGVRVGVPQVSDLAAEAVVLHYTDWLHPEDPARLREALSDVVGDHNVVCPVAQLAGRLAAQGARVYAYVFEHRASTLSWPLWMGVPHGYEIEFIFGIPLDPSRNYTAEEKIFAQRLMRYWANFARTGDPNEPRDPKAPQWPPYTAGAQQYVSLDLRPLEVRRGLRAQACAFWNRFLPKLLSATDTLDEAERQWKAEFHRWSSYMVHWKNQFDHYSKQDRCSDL

As for `CC1(C)CCC(c2ccc(Cl)cc2)=C(CN2CCN(c3ccc(C(=O)NS(=O)(=O)c4ccc(N[C@H](CCN5CCOCC5)CSc5ccccc5)c(S(=O)(=O)C(F)(F)F)c4)cc3)CC2)C1` [Navitoclax, reference compound], the “apoptosis / cytotoxicity in normal cells” value in the data set on normal HDF cells is listed as “high levels of apoptosis”. The IC50 in data set [1] was 1000 nM. Besides, the apoptosis induction entry in the data set on MDA-MB-231 cells and in the data set with MCF-7 cells was “high levels of apoptosis” each time.
As for `CC(=O)NC[C@H]1CN(c2ccc(N3CCOCC3)c(F)c2)C(=O)O1` [Linezolid, reference compound], the time-kill outcome in the data set on MRSA is reported as “remained bacteriostatic, showing no significant kill at any time point”. Further, in [2], the MBC/MIC stood at 17.6 and the “Interpretation (of MBC/MIC)” value was “Bacteriostatic”.
For `CN1C(=S)N(c2ccccc2)C(=O)/C1=C1/C(=O)N(C)c2ccc(Cl)cc21` [Compound 12, (Z)-5-chloro-1-methyl-3-(3-methyl-5-oxo-1-phenyl-2-thioxoimidazolidin-4-ylidene)indolin-2-one], the IC50 in [3] amounted to 16 ± 1.15 µg/mL (≈ 41.7 µM); in [4], 27.3 ± 2.01 µg/mL (≈ 71.1 µM).
On the same counts, the results for `COc1cccc2c1C(=O)c1c(O)c3c(c(O)c1C2=O)C[C@@](O)(C(=O)CO)C[C@@H]3O[C@H]1C[C@H](N)[C@H](O)[C@H](C)O1` [Doxorubicin, reference compound] are 25.1 ± 1.67 µg/mL (≈ 46.3 µM) and 36.6 ± 2.12 µg/mL (≈ 67.3 µM).
Turning to `CN1C(=O)/C(=N\Nc2ncc(-c3cc4ccccc4oc3=O)s2)c2cc(Cl)ccc21` [Compound 5, (Z)-5-chloro-1-methyl-3-(2-(5-(2-oxo-2H-chromen-3-yl)thiazol-2-yl)hydrazono)indolin-2-one], in [5], the “anti-MRSA potency compared to Linezolid” value was “superior potency”. Also, the “Interpretation (of MIC)” value in data set [5] is reported as “Extremely potent”. The “apoptosis / cytotoxicity in normal cells” value in the data set with normal HDF cells was “significantly lower cytotoxicity”. Moreover, the MBC/MIC in [2] was 5.7. For the same molecule, the “Interpretation (of MBC/MIC)” value in data set [2] is reported as “Moderate bactericidal”. Moreover, the IC50 in data set [3] amounted to 10.8 ± 1.19 µg/mL (≈ 24.8 µM); against AChE, 99.8 nM; in [4], 14.4 ± 1.89 µg/mL (≈ 33.1 µM). Moreover, the apoptosis induction result with MDA-MB-231 cells and in the data set on MCF-7 cells was “moderate apoptosis” throughout. In the data set on MRSA biofilm (Staphylococcus aureus, MRSA, read-out: inhibition of MRSA biofilm formation), the inhibition at 1.3 µg/mL is roughly 40%. Moreover, in the data set on MRSA biofilm (various concentrations (Fig. 8Z)), the “eradication of preformed MRSA biofilms” value is listed as “eradication efficiency increasing in a concentration-dependent manner”.
With `CCc1ccc(N2C(=O)/C(=C3/C(=O)N(C)c4ccc(Cl)cc43)NC2=S)cc1` [Compound 9, (Z)-5-chloro-3-(1-(4-ethylphenyl)-5-oxo-2-thioxoimidazolidin-4-ylidene)-1-methylindolin-2-one], the “anti-MRSA potency compared to Linezolid” value in [5] is “significantly less potent”. For the same molecule, the “Interpretation (of MIC)” value in data set [5] is recorded as “Weak activity”. For the same molecule, the IC50 in data set [3] turned out to be 24 ± 1.49 µg/mL (≈ 60.3 µM); at AChE, 302 nM; in data set [4], 28.4 ± 2.19 µg/mL (≈ 71.4 µM).
